Converted amounts (≈) assume the structure as drawn.
Key:
Staphylococcus aureus [1] = experiment: microbe, parasite or virus in culture; conditions: ATCC 25923
Streptococcus pyogenes [2] = experiment: microbe, parasite or virus in culture; conditions: ATCC 19615
Staphylococcus aureus [3] = experiment: microbe, parasite or virus in culture
Bacillus subtilis = experiment: microbe, parasite or virus in culture
Streptococcus pyogenes [4] = experiment: microbe, parasite or virus in culture
Escherichia coli = experiment: microbe, parasite or virus in culture
Klebsiella pneumoniae = experiment: microbe, parasite or virus in culture
Aspergillus niger = experiment: microbe, parasite or virus in culture
Candida albicans = experiment: microbe, parasite or virus in culture
Trichoderma viride = experiment: microbe, parasite or virus in culture
HepG2 [5] = experiment: cells; conditions: Homo sapiens, HepG2, 48 h
HCT-116 [6] = experiment: cells; conditions: Homo sapiens, HCT-116, 48 h
[7] = test system: Mycobacterium tuberculosis; experiment: microbe, parasite or virus in culture; conditions: H37Rv
[8] = test system: Mycobacterium tuberculosis; experiment: microbe, parasite or virus in culture; conditions: H37Rv ATCC 27294, 168 h
A549 [9] = experiment: cells; conditions: Homo sapiens, A549, 48 h
HepG2 [10] = experiment: cells; conditions: Homo sapiens, HepG2, 24 h
HCT-116 [11] = experiment: cells; conditions: Homo sapiens, HCT-116, 24 h
MCF7 [12] = experiment: cells; conditions: Homo sapiens, MCF7, 24 h
A549 [13] = experiment: cells; conditions: Homo sapiens, A549, 48 h; remark: listed apart in the source
MCF7 [14] = experiment: cells; conditions: Homo sapiens, MCF7, 48 h
NCI-H1299 [15] = experiment: cells; conditions: Homo sapiens, NCI-H1299, 48 h
MDA-MB-231 [16] = experiment: cells; conditions: Homo sapiens, MDA-MB-231, 48 h
HCT-116 [17] = experiment: cells; conditions: Homo sapiens, HCT-116, 48 h; remark: listed apart in the source
MCF7 [18] = experiment: cells; conditions: Homo sapiens, MCF7, 48 h; remark: listed apart in the source
HCT-116 [19] = experiment: cells; conditions: Homo sapiens
MCF7 [20] = experiment: cells; conditions: Homo sapiens
MCF7 [21] = experiment: cells; conditions: Homo sapiens; remark: listed apart in the source
HepG2 [22] = experiment: cells; conditions: Homo sapiens
HCT-116 [23] = experiment: cells; conditions: Homo sapiens; remark: listed apart in the source
MCF7 [24] = experiment: cells; conditions: Homo sapiens, MCF7, 48 h; remark: listed apart in the source
HepG2 [25] = experiment: cells; conditions: Homo sapiens, HepG2, 48 h; remark: listed apart in the source
HepG2 [26] = experiment: cells; conditions: Homo sapiens; remark: listed apart in the source
HCT-116 [27] = experiment: cells; conditions: Homo sapiens; remark: listed apart in the source
MDA-MB-231 [28] = experiment: cells; conditions: Homo sapiens, MDA-MB-231, 48 h; remark: listed apart in the source
A549 [29] = experiment: cells; conditions: Homo sapiens, A549, 48 h; remark: listed apart in the source
NCI-H1299 [30] = experiment: cells; conditions: Homo sapiens, NCI-H1299, 48 h; remark: listed apart in the source
HepG2 [31] = experiment: cells; conditions: Homo sapiens, HepG2, 48 h; remark: listed apart in the source
MCF7 [32] = experiment: cells; conditions: Homo sapiens, MCF7, 48 h; remark: listed apart in the source
HepG2 [33] = experiment: cells; conditions: Homo sapiens, HepG2, 48 h; remark: listed apart in the source
MCF7 [34] = experiment: cells; conditions: Homo sapiens, MCF7, 48 h; remark: listed apart in the source
NCI-H1299 [35] = experiment: cells; conditions: Homo sapiens
cells = conditions: Homo sapiens, Breast carcinoma cell
A549 [36] = experiment: cells; conditions: Homo sapiens, A549, 72 h
HCT-116 [37] = experiment: cells; conditions: Homo sapiens, HCT-116, 72 h
U-87 MG = experiment: cells; conditions: Homo sapiens, 72 h

Cc1ccc(S(=O)(=O)Oc2ccc(-c3nc4ccccc4c4nc(=S)[nH]n34)cc2)cc1
MIC (Staphylococcus aureus [1]): 3.12 µg/mL (≈ 6.97 µM) | MIC (Streptococcus pyogenes [2]): 6.25 µg/mL (≈ 13.9 µM)

Nc1ccccc1-c1cc2ccccc2[nH]1
MIC (Staphylococcus aureus [3]): 2.5 µg/mL (≈ 12 µM) | MIC (Bacillus subtilis): 2.5 µg/mL (≈ 12 µM) | MIC (Streptococcus pyogenes [4]): 2.5 µg/mL (≈ 12 µM) | MIC (Escherichia coli): 2.5 µg/mL (≈ 12 µM) | MIC (Klebsiella pneumoniae): 2.5 µg/mL (≈ 12 µM) | MIC (Aspergillus niger): 2.5 µg/mL (≈ 12 µM) | MIC (Candida albicans): 2.5 µg/mL (≈ 12 µM) | MIC (Trichoderma viride): 2.5 µg/mL (≈ 12 µM)

Oc1ccc(/C=N/Nc2nc3ccccc3c3nncn23)cc1
IC50 (HepG2 [5]): 4.43 µM | IC50 (HCT-116 [6]): 48.5 µM

CCCc1nc2cc(C)ccc2c2nc3ccccc3n12
IC50 [7]: 12.5 µg/mL (≈ 45.4 µM) | IC50 [8]: 0.4 µg/mL (≈ 1.45 µM)

FC(F)(F)c1nc2ccccc2c2cc3cc(Cl)ccc3n12
IC50 (A549 [9]): 30.7 µM

CN(C)c1ccc(/C=N/NC(=O)c2ccc(Nc3nc4ccccc4c4nncn34)cc2)cc1
IC50 (HepG2 [10]): 7.91 µM | IC50 (HCT-116 [11]): 8.27 µM

CCOC(=O)c1ccc2c3cc(Cl)c(Br)cc3ncn2c1=O
IC50 (MCF7 [12]): 3.44 µg/mL (≈ 9.01 µM)

c1ccc2cc(-c3cc4c5ccccc5ncn4n3)ccc2c1
GI50 (A549 [13]): 1.98 µM | GI50 (MCF7 [14]): 2.03 µM

Oc1ccc(-c2nc3ccccc3c3cc(-c4ccccc4)nn23)cc1
GI50 (NCI-H1299 [15]): 2.97 µM | GI50 (MDA-MB-231 [16]): 1.95 µM

O=c1nc(-c2ccc(Nc3nc4ccccc4c4nncn34)cc2)cc(-c2ccccc2)[nH]1
IC50 (HCT-116 [17]): 11.8 µM

Clc1ccc2c(c1)cc1c3ccccc3nc(-c3ccccc3)n21
IC50 (A549 [9]): 30.7 µM

COc1ccc(-c2cc(-c3ccc(Nc4nc5ccccc5c5nncn45)cc3)nc(=O)[nH]2)cc1
IC50 (HCT-116 [17]): 11.8 µM

Cc1ccc(-c2nc3ccccc3c3cc4ccccc4n23)cc1
IC50 (A549 [9]): 30.7 µM

O=[N+]([O-])c1ccc(-c2nc3ccccc3c3cc4ccccc4n23)cc1
IC50 (A549 [9]): 30.7 µM

c1ccc(-c2nc3ncccc3c3cc4ccccc4n23)cc1
IC50 (A549 [9]): 30.7 µM

N#Cc1ccc2c3cc(Cl)c(Br)cc3ncn2c1=O
IC50 (MCF7 [18]): 4.1 µg/mL (≈ 12.3 µM)

c1ccc(-c2nc3ccccc3c3cccn23)cc1
IC50 (A549 [9]): 30.7 µM

CN(C)c1nc2ccccc2c2nncn12
IC50 (HCT-116 [19]): 22.5 µM

O=C(N/N=C/c1c(Cl)cccc1Cl)c1ccc(Nc2nc3ccccc3c3nncn23)cc1
IC50 (HepG2 [10]): 5.42 µM | IC50 (HCT-116 [11]): 7.41 µM

CCOC(=O)c1nn2c(NC(C)(C)CC(C)(C)C)nc3ccccc3c2c1C(=O)OCC
GI50 (A549 [13]): 1.1 µM | GI50 (NCI-H1299 [15]): 1.29 µM

FC(F)(F)c1ccc2c(c1)cc1c3ccccc3nc(-c3ccccc3)n21
IC50 (A549 [9]): 30.7 µM

O=C(/C=C\c1nc2ccccc2c2nc3ccccc3n12)c1ccc(Cl)c(Cl)c1
IC50 (MCF7 [20]): 61 µg/mL (≈ 146 µM) | IC50 (MCF7 [21]): 61 µg/mL (≈ 146 µM)

Cc1ccc(-c2nc3ccccc3c3cc4cc(Cl)ccc4n23)cc1
IC50 (A549 [9]): 30.7 µM

O=C(N/N=C/c1ccccc1O)c1ccc(Nc2nc3ccccc3c3nncn23)cc1
IC50 (HepG2 [10]): 7.42 µM | IC50 (HCT-116 [11]): 7.1 µM

Cc1c(O)n2cnc3cc(Br)c(Cl)cc3c2nc1=O
IC50 (MCF7 [18]): 3.5 µg/mL (≈ 10.3 µM)

Clc1cccc(Cl)c1/C=N/Nc1nc2ccccc2c2nncn12
IC50 (HepG2 [22]): 4.43 µM | IC50 (HCT-116 [23]): 5.22 µM

N#CC1=CC=C2c3cc(Cl)c(Br)cc3N=CN2C1N (configuration not stated)
IC50 (MCF7 [18]): 3.45 µg/mL (≈ 10.3 µM)

Cc1ccc(-c2cc(-c3ccc(Nc4nc5ccccc5c5nncn45)cc3)nc(=O)[nH]2)cc1
IC50 (HCT-116 [17]): 11.8 µM

COc1ccc(-c2nc3ccccc3c3cc4ccccc4n23)cc1
IC50 (A549 [9]): 30.7 µM

Clc1ccc2nc(-c3ccccc3)n3c4ccccc4cc3c2c1
IC50 (A549 [9]): 30.7 µM

Clc1cc2c(cc1Br)ncn1cnnc21
IC50 (MCF7 [24]): 3.39 µg/mL (≈ 12 µM)

COc1ccc(C2CC(c3ccc(Nc4nc5ccccc5c5nncn45)cc3)=NN2)cc1 (configuration not stated)
IC50 (HepG2 [25]): 16.1 µM

Clc1ccc(-c2nc3ccccc3c3cc4cc(Cl)ccc4n23)cc1
IC50 (A549 [9]): 30.7 µM

O=C(NNc1nc2ccccc2c2nncn12)NC1CCCCC1
IC50 (DNA): 42.9 µM | IC50 (HepG2 [26]): 7.98 µM | IC50 (HCT-116 [27]): 5.57 µM

c1ccc(C2CC(c3ccc(Nc4nc5ccccc5c5nncn45)cc3)=NN2)cc1 (configuration not stated)
IC50 (HepG2 [25]): 16.1 µM

O=C(N/N=C/c1ccccc1Cl)c1ccc(Nc2nc3ccccc3c3nncn23)cc1
IC50 (HepG2 [10]): 4.88 µM | IC50 (HCT-116 [11]): 5.21 µM

O=c1nc2c3cc(Cl)c(Br)cc3ncn2c(O)c1-c1ccccc1
IC50 (MCF7 [18]): 3.44 µg/mL (≈ 8.54 µM)

COc1ccc(C(=O)c2c(N)nn3c(NC(C)(C)CC(C)(C)C)nc4ccccc4c23)cc1
IC50 (MDA-MB-231 [28]): 2.45 µM | IC50 (A549 [29]): 1.74 µM | IC50 (NCI-H1299 [30]): 2.04 µM

Clc1ccc(-c2nc3ccccc3c3cc4ccccc4n23)cc1
IC50 (A549 [9]): 30.7 µM

c1ccc(Nc2ccccc2-c2nc3ccccc3c3nc(-c4ccccc4)nn23)cc1
IC50 (HepG2 [31]): 33.3 µg/mL (≈ 80.5 µM) | IC50 (MCF7 [32]): 87 µg/mL (≈ 210 µM) | IC90 (HepG2 [33]): 59.9 µg/mL (≈ 145 µM) | IC90 (MCF7 [34]): 137 µg/mL (≈ 332 µM)

Cc1ccc2c(c1)cc1c3ccccc3nc(-c3ccccc3)n21
IC50 (A549 [9]): 30.7 µM

CC(C)(C)CC(C)(C)Nc1nc2ccccc2c2c(C(=O)c3ccc(F)cc3)c(N)nn12
IC50 (MDA-MB-231 [28]): 1.93 µM | IC50 (A549 [29]): 1.06 µM | IC50 (NCI-H1299 [30]): 1.32 µM | IC50 (NCI-H1299 [35]): < 2.5 µM | IC50 (cells): < 2.5 µM

S=C(NNc1nc2ccccc2c2nncn12)NC1CCCCC1
IC50 (DNA): 48.1 µM

COC(=O)c1nn2c(NC(C)(C)C)nc3cc(Cl)ccc3c2c1C(=O)OC
IC50 (A549 [36]): 1.1 µM | IC50 (HCT-116 [37]): 2.3 µM | IC50 (U-87 MG): 2.6 µM

O=C(N/N=C/c1ccc(Cl)cc1)c1ccc(Nc2nc3ccccc3c3nncn23)cc1
IC50 (HepG2 [10]): 8.64 µM | IC50 (HCT-116 [11]): 11 µM

Cc1ccc2nc(-c3ccccc3)n3c4ccccc4cc3c2c1
IC50 (A549 [9]): 30.7 µM

Cc1ccc(C2CC(c3ccc(Nc4nc5ccccc5c5nncn45)cc3)=NN2)cc1 (configuration not stated)
IC50 (HepG2 [25]): 16.1 µM

c1ccc(-c2nc3ccccc3c3cc4ccccc4n23)cc1
IC50 (A549 [9]): 30.7 µM

COc1ccc(-c2nc3ccccc3c3cc4cc(Cl)ccc4n23)cc1
IC50 (A549 [9]): 30.7 µM

Cc1nc2ccccc2c2cc3ccccc3n12
IC50 (A549 [9]): 30.7 µM

CC(C)(C)CC(C)(C)Nc1nc2ccccc2c2c(C#N)c(N)nn12
IC50 (MDA-MB-231 [28]): 1.96 µM | IC50 (NCI-H1299 [30]): 2.02 µM | IC50 (NCI-H1299 [35]): < 2.5 µM | IC50 (cells): < 2.5 µM

CCCc1nc2ccccc2c2nc3ccccc3n12
IC50 [7]: 0.78 µg/mL (≈ 2.98 µM) | IC50 [8]: 0.78 µg/mL (≈ 2.98 µM)

COc1cccc2c1C(=O)c1c(O)c3c(c(O)c1C2=O)C[C@@](O)(C(=O)CO)C[C@@H]3O[C@H]1C[C@H](N)[C@H](O)[C@H](C)O1 [DOXORUBICIN]
IC50 (DNA): 31.3 µM | IC50 (HCT-116 [23]): 9.63 µM | IC50 (HepG2 [25]): 7.94 µM

— ChEMBL document CHEMBL5614371, “Quinazolines annelated at the N(3)-C(4) bond: Synthesis and biological activity” (Eur J Med Chem, 2024)
